The values below are quoted from earlier work in patent publication US20040039017A1, “Urotensin-II receptor antagonists” (priority 2000, published 2004).

The structures appear in SMILES notation.

The test system of the data set is rat-isolated aorta. Conditions: Ames et al. Nature 1999, 401, 282.

As for `CC(C)[C@H](NC(=O)[C@@H]1CSSC[C@H](NC(=O)[C@H](CC(=O)O)NC(=O)[C@@H]2CCCN2C(=O)[C@@H](NC(=O)[C@@H](N)CCC(=O)O)[C@@H](C)O)C(=O)N[C@@H](Cc2ccccc2)C(=O)N[C@@H](Cc2c[nH]c3ccccc23)C(=O)N[C@@H](CCCCN)C(=O)N[C@@H](Cc2ccc(O)cc2)C(=O)N1)C(=O)O` [Human Urotensin-II], the contractile activity result is on record as “most potent contractile agonist identified to date”.
